Test [1] has as its system vascular lesion (abnormal vasculature) in brain tissue. Conditions: ICG alone; general comparison statement; cited from earlier work.
Test [2] relates to Grade 4 Atypical Teratoid Rhabdoid Tumor (ATRT) in the posterior fossa/brain stem. In words: Intraoperative NIR fluorescence imaging during pediatric brain tumor resection. The format is in vivo, human. How it is done: This example describes use of the imaging system and/or method disclosed herein for coaxial illumination and visualization of tozuleristide fluorescence during surgical resection of a pediatric brain tumor. The imaging system of the present invention was used to image brain tissue to detect a cancer using fluorescence imaging. Surgery was performed to remove cancer from the subject.
Subject T613 was diagnosed with a Grade 4 Atypical Teratoid Rhabdoid Tumor (ATRT) in the posterior fossa/brain stem. Tozuleristide which is a peptide-fluorophore detectable agent (15 mg/m2 dose), was given by intravenous (IV) bolus injection about 13.5 hours prior to the start of surgery. The imaging system was attached to the Zeiss Pentero surgical microscope prior the start of surgery, and the microscope head and arm and the imaging system and proximal imaging cable were enclosed in the microscope manufacturer's standard sterile drape. The drape's cover glass was secured over the bottom window aperture of the imaging system.
After the tumor was exposed, the imaging platform was initialized and used continuously. The imaging platform enabled the surgeon to view fluorescence and visible imaging separately and together on the imaging station display, simultaneously with viewing the surgical site in visible light through the operating microscope's eyepieces. […] Moreover, there was no need to reposition the operating microscope to view the imaging platform's fluorescence and visible images, thus allowing normal imaging of the surgical area through the microscope's eyepieces together with the fluorescence imaging system during the operation, which decreased disruption to the surgical workflow.
Video was captured for the duration of the tumor resection, and still images were captured of the exposed tumor. […] FIGS. 15A-15F show images taken from the tumor resection with the near-infrared (NIR) fluorescence images of the tumor using the imaging system (FIGS. 15B and 15E) and the overlay image with the NIR or IR fluorescence overlaid with the white light or visible light spectrum illumination (FIGS. 15C and 15F). […] In the overlay image, the normal brain tissue appeared red, as it does under normal visible light or white light as shown the visible light images of the tumor ([…]). The surgeon noted that only tumor tissue appeared fluorescent.

For test [3], the system named is vascular lesion (abnormal vasculature) in brain tissue. In words: Intraoperative NIR fluorescence imaging during resection of a cerebral vascular lesion (arteriovenous or cavernous malformation). The format is in vivo, human. Particulars: for Fluorescence in surrounding normal brain tissue and normal vasculature / Tozuleristide fluorescence in the abnormal vascular tissue / vascular lesion: pediatric subject, 22 mg IV approximately 5-6 hours before surgery and image collection, in situ. As to the method: This example describes use of the imaging system and/or methods disclosed herein for coaxial illumination and visualization of tozuleristide fluorescence during surgical resection of an arteriovenous malformation or cavernous malformation in a pediatric patient. The imaging system of the present invention was used to image brain tissue to detect abnormal vasculature using fluorescence imaging. Surgery was performed to remove the abnormality from the subject.
A pediatric subject with a history of anosmia was found on MRI to have a 3.5 cm T1-hypointense, T2/FLAIR-hyperintense mass in the right middle frontal gyrus with a central enhancing nodule, initially diagnosed pre-operatively to be a low-grade glioma. […] The patient received 22 mg tozuleristide via IV injection approximately 5-6 hours before surgery and image collection. The imaging system head was attached to the Zeiss Pentero surgical microscope along with two eyepieces prior the start of surgery.
After the lesion was exposed, the imaging system was initialized and used continuously. The imaging system enabled the surgeon to view fluorescence and visible imaging together and simultaneously with the operating microscope. A microsurgical resection was performed through a right frontal craniotomy. […] The abnormal tissue was completely resected. The patient recovered without deficit. Pathology confirmed the absence of tumor.
Video was captured for the duration of the resection, and still images were captured of the exposed lesion. […] FIGS. 29A-I show images taken from the vascular lesion with the near-infrared (NIR) fluorescence images of the vascular lesion using the imaging system. […] In the overlay image, the normal brain tissue and normal blood vessels appeared pink or light tan to red, as it does under normal visible light or white light. The surgeon noted that only the abnormal vascular tissue appeared fluorescent.
FIGS. 29A-I show representative images of in situ or intra-operative tissue during surgery on a vascular lesion in a patient, wherein 22 mg of tozuleristide was administered to the human subject. […] Labeled arrows indicate non-fluorescent regions of normal blood vessels (“BV”) and normal brain tissue (“NB”). In contrast, fluorescence signal corresponding to lighter and brighter areas in the NIR or IR image, was indicative of the presence of tozuleristide on the abnormal vascular lesion (“VL”), and not in normal tissue. […] The arrows mark the same locations as shown in the NIR or IR image in FIG. 29E. […] Fluorescence in the vascular lesion (“VL”) clearly differentiated it from the surrounding normal tissues, including normal blood vessels (“BV”). […] Arrows indicate the vascular lesion (labeled “VL”) and adjacent normal brain (labeled “NB”), which is non-fluorescent. […] While the normal brain has a light tan to pink color (light gray in a gray scale image), it is perfused with normal blood vessels that can be differentiated from the vascular lesion by the absence of fluorescence.

[4] abbreviates: Subject T613, 15 mg/m2 IV bolus about 13.5 hours prior to start of surgery, in situ.

Entries after “also recorded” stand apart in the source; their conditions may differ.

Turning to `CC1(C)C(/C=C/C=C/C=C/C=C2\N(CCCCS(=O)(=O)O)c3ccc4ccccc4c3C2(C)C)=[N+](CCCCS(=O)(=O)[O-])c2ccc3ccccc3c21` [ICG, indocyanine green], the “Blood vessel fluorescence after injection” value in test [1] is “transiently lights up blood vessels immediately after injection”.
As for Tozuleristide, the “Surgeon's assessment of the distinction between tumor and normal tissue fluorescence” value in test [2] (NIR or IR fluorescence using the imaging system, compared with normal visible light) was “very good distinction between tumor and normal tissue fluorescence”. Besides, in test [2] (setting [4]), the “Fluorescence in non-tumor brain tissue” value is reported as “did not show any fluorescence” and the “Tozuleristide fluorescence in the exposed tumor (NIR or IR fluorescence image)” value is reported as “observed in situ in the exposed tumor”. In addition, the “Histopathology of the fluorescent tissue samples” value in test [2] (tumor resection, Subject T613) is reported as “confirmed to be viable tumor”. Besides, the “Time after injection at which diseased tissue can be highlighted” value in test [3] (general statement, fluorescence dependent on pathological tissue binding and uptake) is given as “up to 30 hours”. In test [3], the “Fluorescence in surrounding normal brain tissue and normal vasculature” value is listed as “showed no fluorescence”; the “Tozuleristide fluorescence in the abnormal vascular tissue / vascular lesion” value is “indicative of the presence of tozuleristide in the vascular lesion; also recorded: fluoresced avidly”. For the same molecule, in test [3] (listed as Tozuleristide), the “Fluorescence in surrounding normal brain tissue and normal vasculature” value is listed as “no discernable background fluorescence”; the “Tozuleristide fluorescence in the abnormal vascular tissue / vascular lesion” value was “observed in situ in the exposed vascular lesion”. Besides, the “Histopathology of the fluorescent tissue samples” value in test [3] (vascular lesion resection) is “confirmed to be non-cancerous and vascular in nature”.

The values above are taken from patent US20240280490A1, “SYSTEMS AND METHODS FOR SIMULTANEOUS NEAR-INFRARED LIGHT AND VISIBLE LIGHT IMAGING” (priority 2020, published 2024).
